Experimental data published in ChEMBL document CHEMBL4507270 (2021).
Active and inactive are the calls of the source. No cut-off for these calls is given here.

Legend:
[1] = biological target: Serine/threonine-protein kinase 4 (Homo sapiens) (UniProt Q13043)
[2] = biological target: Beta-3 adrenergic receptor (Homo sapiens, UniProt P13945); assay: GPCRScan assay: inhibition of Beta3; set-up: radioligand conc. used [nm] 0.2 – 0.5, parental cells HEK Flp-In
[3] = biological target: Histamine H3 receptor (Homo sapiens) (UniProt Q9Y5N1); conditions: Compound concentration 10.0 uM
[4] = biological target: Histamine H4 receptor (Homo sapiens) (UniProt Q9H3N8); conditions: Compound concentration 10.0 uM
[5] = biological target: Fibroblast growth factor receptor 3 (Homo sapiens, UniProt P22607); assay: Bayer in-house kinase assay with […]
[6] = biological target: Fibroblast growth factor receptor 1 (Homo sapiens, UniProt P11362); assay: Bayer in-house kinase assay with FGFR1
[7] = biological target: Vascular endothelial growth factor receptor 2 (Homo sapiens, UniProt P35968); assay: KINOMEScan (DiscoveRx Corp) with KDR
[8] = biological target: T1, Angiopoietin-1 receptor (Homo sapiens, UniProt Q02763); assay: Bayer in-house kinase assay with TEK
T1 sequence (Q02763 whole entry): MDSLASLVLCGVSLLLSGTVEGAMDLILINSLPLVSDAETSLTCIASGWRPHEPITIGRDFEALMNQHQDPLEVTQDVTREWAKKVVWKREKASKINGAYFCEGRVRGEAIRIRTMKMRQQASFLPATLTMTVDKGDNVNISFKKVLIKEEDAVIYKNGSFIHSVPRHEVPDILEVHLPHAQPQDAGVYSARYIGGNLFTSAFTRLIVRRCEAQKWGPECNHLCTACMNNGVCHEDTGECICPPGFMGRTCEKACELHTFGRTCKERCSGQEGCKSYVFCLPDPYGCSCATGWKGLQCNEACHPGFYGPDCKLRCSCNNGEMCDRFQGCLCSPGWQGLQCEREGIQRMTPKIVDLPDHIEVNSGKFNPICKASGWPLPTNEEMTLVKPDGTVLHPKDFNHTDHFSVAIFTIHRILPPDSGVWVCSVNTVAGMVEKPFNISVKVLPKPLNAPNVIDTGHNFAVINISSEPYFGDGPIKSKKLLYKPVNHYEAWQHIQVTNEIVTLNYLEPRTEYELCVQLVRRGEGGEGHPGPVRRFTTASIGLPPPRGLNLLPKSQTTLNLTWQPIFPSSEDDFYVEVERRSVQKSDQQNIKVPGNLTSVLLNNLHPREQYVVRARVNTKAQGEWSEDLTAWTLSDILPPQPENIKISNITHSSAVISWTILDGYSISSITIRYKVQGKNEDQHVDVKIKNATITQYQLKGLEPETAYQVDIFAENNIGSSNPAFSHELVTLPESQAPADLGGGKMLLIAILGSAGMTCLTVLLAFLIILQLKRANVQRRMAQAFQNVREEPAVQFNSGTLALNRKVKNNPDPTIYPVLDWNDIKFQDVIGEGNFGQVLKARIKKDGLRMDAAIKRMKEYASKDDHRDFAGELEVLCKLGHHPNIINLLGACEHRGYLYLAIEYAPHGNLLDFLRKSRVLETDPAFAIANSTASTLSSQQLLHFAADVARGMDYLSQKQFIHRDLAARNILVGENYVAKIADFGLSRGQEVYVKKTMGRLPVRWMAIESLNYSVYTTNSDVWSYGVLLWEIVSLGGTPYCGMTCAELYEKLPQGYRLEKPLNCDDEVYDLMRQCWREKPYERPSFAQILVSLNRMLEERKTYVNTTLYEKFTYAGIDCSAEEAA

[9] = biological target: Serine/threonine-protein kinase MARK1 (Homo sapiens) (UniProt Q9P0L2)
Sequence of Serine/threonine-protein kinase MARK1 (Homo sapiens) (Q9P0L2 whole entry, looked up): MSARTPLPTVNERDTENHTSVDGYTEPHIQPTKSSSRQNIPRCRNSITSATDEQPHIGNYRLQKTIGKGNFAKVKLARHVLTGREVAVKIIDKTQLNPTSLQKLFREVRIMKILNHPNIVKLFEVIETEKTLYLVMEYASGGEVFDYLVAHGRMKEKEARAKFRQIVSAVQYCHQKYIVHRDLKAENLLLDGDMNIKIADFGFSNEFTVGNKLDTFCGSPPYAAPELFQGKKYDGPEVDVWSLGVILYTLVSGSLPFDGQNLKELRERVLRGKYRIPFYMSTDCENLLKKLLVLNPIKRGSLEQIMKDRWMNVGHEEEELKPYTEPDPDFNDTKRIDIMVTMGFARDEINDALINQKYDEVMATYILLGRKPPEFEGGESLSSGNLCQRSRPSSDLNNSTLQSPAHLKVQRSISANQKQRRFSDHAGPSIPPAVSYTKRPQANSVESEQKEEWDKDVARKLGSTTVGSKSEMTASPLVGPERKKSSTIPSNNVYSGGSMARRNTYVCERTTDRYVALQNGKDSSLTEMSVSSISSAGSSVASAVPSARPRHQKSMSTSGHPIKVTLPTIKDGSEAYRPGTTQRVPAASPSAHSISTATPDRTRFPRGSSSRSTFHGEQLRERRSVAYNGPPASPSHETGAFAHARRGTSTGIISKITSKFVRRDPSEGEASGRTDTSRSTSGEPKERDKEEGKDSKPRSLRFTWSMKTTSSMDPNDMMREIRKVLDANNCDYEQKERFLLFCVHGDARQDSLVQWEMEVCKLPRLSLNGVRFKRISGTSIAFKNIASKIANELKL

[10] = biological target: Serine/threonine-protein kinase PAK 1 (Homo sapiens) (UniProt Q13153)
Sequence of Serine/threonine-protein kinase PAK 1 (Homo sapiens) (Q13153 whole entry): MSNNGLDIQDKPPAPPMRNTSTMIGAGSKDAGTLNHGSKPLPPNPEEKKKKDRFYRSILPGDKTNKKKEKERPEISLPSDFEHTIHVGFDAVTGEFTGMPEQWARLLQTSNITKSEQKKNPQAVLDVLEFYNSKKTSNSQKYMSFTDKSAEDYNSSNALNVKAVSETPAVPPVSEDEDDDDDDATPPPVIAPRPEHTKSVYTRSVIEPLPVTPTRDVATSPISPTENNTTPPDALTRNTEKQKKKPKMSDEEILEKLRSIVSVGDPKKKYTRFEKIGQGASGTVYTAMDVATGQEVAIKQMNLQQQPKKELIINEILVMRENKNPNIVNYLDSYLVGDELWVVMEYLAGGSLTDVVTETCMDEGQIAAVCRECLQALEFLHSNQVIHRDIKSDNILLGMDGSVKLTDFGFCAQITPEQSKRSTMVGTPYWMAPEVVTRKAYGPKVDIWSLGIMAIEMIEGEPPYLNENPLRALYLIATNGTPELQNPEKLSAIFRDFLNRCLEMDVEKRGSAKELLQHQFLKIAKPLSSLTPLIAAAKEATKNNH

[11] = biological target: Histamine H1 receptor (Homo sapiens) (UniProt P35367); conditions: Compound concentration 10.0 uM
[12] = biological target: D(3) dopamine receptor (Homo sapiens) (UniProt P35462); conditions: Compound concentration 10.0 uM
[13] = biological target: Platelet-derived growth factor receptor beta (Homo sapiens, UniProt P09619); assay: Bayer in-house kinase assay with PDGFRB
[14] = biological target: Vascular endothelial growth factor receptor 3 (Homo sapiens, UniProt P35916); assay: Bayer in-house kinase assay with FLT4
[15] = biological target: T2, Discoidin domain-containing receptor 2 (Homo sapiens, UniProt Q16832); assay: Inhibition of DDR2 at compound concentration of 10.0 uM using the ScanMax (DiscoverX)
T2 sequence (Q16832 whole entry): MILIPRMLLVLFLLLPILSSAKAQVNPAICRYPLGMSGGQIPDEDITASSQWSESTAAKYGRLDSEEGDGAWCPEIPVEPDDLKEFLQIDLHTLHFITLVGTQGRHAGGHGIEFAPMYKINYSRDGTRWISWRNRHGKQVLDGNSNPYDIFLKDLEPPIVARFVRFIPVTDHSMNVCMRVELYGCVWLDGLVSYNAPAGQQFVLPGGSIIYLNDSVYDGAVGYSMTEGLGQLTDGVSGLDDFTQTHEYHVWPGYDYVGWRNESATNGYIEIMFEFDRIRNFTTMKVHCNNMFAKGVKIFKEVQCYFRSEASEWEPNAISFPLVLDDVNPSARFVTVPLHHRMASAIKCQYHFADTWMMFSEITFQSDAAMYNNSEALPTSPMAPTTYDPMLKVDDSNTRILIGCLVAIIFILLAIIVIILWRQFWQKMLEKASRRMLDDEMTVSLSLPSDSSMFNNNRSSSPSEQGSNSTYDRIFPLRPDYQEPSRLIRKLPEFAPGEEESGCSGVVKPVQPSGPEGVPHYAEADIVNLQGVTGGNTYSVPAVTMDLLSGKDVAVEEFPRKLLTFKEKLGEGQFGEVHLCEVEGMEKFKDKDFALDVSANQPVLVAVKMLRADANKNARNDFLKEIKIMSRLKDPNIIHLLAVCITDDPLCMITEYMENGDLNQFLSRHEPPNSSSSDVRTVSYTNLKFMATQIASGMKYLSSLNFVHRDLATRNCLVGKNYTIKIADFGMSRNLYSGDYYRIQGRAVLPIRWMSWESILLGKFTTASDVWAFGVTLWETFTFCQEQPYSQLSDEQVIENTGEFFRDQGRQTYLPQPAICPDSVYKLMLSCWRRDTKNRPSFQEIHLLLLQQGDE

[16] = biological target: T3, Tyrosine-protein kinase receptor Tie-1 (Homo sapiens, UniProt P35590); assay: NanoBRET assay (SGC Frankfurt) with TIE1
T3 sequence (P35590 whole entry): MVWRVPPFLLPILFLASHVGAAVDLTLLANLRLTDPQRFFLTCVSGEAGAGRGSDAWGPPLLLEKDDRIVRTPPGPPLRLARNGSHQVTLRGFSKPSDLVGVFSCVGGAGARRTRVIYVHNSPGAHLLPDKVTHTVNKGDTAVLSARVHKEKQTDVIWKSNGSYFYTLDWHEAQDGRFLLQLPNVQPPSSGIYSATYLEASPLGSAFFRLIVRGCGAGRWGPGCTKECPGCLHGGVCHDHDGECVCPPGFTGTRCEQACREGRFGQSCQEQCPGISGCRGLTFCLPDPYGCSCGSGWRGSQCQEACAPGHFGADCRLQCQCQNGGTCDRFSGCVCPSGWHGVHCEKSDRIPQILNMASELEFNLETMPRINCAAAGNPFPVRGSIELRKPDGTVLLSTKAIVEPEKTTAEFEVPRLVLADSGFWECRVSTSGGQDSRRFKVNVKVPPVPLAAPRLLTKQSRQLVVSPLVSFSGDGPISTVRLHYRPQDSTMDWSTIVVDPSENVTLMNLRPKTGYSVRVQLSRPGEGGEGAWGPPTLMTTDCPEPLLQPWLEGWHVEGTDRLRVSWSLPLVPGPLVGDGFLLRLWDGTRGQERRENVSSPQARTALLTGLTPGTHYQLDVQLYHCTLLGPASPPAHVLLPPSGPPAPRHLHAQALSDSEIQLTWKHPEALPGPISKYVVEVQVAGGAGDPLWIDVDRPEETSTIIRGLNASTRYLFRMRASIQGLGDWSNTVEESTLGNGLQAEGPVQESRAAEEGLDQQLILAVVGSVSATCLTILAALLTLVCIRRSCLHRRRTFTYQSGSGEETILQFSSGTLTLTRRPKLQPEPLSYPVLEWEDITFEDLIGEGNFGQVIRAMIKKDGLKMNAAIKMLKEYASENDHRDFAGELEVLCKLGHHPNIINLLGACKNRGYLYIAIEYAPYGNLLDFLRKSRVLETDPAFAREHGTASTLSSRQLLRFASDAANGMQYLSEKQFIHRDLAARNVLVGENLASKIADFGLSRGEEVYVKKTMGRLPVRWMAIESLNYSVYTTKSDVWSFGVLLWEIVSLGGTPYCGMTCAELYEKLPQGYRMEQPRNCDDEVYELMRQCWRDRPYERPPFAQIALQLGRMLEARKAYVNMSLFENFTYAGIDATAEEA

[17] = biological target: T3, Tyrosine-protein kinase receptor Tie-1; conditions: Compound concentration 1000.0 nM
[18] = biological target: 5-hydroxytryptamine receptor 2B (Homo sapiens, UniProt P41595); assay: GPCRScan assay: inhibition of 5-HT2B; set-up: radioligand conc. used [nm] 1.0 – 2.0, parental cells stable HEK
[19] = biological target: Epithelial discoidin domain-containing receptor 1 (Homo sapiens, UniProt Q08345); assay: Inhibition of DDR1 at compound concentration of 10.0 uM using the ScanMax (DiscoverX)
[20] = biological target: Delta-type opioid receptor (Homo sapiens, UniProt P41143); assay: GPCRScan assay: inhibition of DOR; set-up: radioligand conc. used [nm] 1.0 – 2.0, parental cells stable HEK
[21] = biological target: Mu-type opioid receptor (Homo sapiens, UniProt P35372); assay: GPCRScan assay: inhibition of MOR; set-up: radioligand conc. used [nm] 1.0 – 2.0, parental cells stable HEK
Sequence of Mu-type opioid receptor (P35372 whole entry): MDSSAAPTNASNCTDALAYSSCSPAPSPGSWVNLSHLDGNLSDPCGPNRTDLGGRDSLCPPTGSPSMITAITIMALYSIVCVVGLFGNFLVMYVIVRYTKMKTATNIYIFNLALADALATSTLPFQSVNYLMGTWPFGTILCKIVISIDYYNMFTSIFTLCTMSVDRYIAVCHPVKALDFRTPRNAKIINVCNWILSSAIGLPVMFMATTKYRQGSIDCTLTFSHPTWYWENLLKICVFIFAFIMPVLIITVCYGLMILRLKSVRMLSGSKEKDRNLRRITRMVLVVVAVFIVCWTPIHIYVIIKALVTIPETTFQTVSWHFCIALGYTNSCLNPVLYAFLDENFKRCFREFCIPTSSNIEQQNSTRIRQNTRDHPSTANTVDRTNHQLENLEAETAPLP

[22] = biological target: T1, Angiopoietin-1 receptor; assay: KINOMEScan (DiscoveRx Corp) with TEK
[23] = biological target: D(1B) dopamine receptor (Homo sapiens) (UniProt P21918); conditions: Compound concentration 10.0 uM
[24] = biological target: Serine/threonine-protein kinase 10 (Homo sapiens, UniProt O94804); assay: NanoBRET assay (SGC Frankfurt) with STK10
[25] = biological target: Sodium-dependent noradrenaline transporter (Homo sapiens, UniProt P23975); assay: GPCRScan assay: inhibition of NET; set-up: radioligand conc. used [nm] 1.3 – 5.0, parental cells stable HEK
[26] = biological target: GABA-A receptor; anion channel (Rattus norvegicus) (UniProt O09028+P15431+P18506+P18508+P19969+P20236+P23574+P23576+P28471+P28473+P30191+P62813+P63079+P63138+Q91ZM7+Q9ES14); conditions: Compound concentration 10.0 uM
[27] = biological target: D(2) dopamine receptor (Homo sapiens, UniProt P14416); assay: GPCRScan assay: inhibition of D2; set-up: radioligand conc. used [nm] 0.4 – 1.0, parental cells stable fibroblast
[28] = biological target: 5-hydroxytryptamine receptor 6 (Homo sapiens) (UniProt P50406); conditions: Compound concentration 10.0 uM
[29] = biological target: 5-hydroxytryptamine receptor 2C (Homo sapiens, UniProt P28335); assay: GPCRScan assay: inhibition of 5-HT2C; set-up: radioligand conc. used [nm] 1.0 – 2.5, parental cells HEK T
[30] = Compound concentration 100.0 nM
[31] = Compound concentration 1000.0 nM

Sequence of Beta-3 adrenergic receptor (P13945 whole entry): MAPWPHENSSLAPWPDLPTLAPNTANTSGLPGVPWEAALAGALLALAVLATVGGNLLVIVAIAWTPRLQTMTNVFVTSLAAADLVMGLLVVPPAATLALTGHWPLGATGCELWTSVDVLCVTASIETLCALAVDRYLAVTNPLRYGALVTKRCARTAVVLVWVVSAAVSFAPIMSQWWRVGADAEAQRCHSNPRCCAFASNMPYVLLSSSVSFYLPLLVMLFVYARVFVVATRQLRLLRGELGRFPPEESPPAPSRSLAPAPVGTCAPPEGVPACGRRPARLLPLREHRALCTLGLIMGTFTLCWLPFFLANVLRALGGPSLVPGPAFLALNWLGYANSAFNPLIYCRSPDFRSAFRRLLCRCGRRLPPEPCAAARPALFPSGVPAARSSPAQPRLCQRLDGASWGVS
Sequence of Serine/threonine-protein kinase 4 (Homo sapiens) (Q13043 whole entry): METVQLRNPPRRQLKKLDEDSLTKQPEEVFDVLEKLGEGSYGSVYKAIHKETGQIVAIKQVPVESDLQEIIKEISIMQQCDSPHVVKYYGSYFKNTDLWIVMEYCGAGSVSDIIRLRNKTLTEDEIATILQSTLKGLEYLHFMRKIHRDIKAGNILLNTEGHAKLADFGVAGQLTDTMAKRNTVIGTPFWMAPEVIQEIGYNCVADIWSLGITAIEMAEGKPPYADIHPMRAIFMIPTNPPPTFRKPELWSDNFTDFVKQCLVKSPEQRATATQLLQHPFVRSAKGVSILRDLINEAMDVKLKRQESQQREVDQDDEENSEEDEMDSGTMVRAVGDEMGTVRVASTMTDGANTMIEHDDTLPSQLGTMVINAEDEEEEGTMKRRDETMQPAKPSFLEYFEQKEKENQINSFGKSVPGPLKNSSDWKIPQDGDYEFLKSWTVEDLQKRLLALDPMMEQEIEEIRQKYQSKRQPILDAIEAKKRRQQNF

Cc1cc(C)c(-n2ccn3nc(-c4cccnc4)cc23)cc1NC(=O)c1cc(C#N)cc(S(F)(F)(F)(F)F)c1 [BAY-826]
residual activity [1, 30]: 88.5% | Ki ([2]; read-out: Ki): 7.1 µM | Ki ([2]; read-out: pKi (converted)): 6.68 µM | inhibition [3]: -5.88% | inhibition [4]: 11.9% | IC50 [5]: > 10 µM (not active) | IC50 [6]: > 10 µM (not active) | Kd [7]: 1.6 µM (not active) | IC50 [8]: 0.00045 µM (active) | residual activity [9, 30]: 96.7% | residual activity [10, 30]: 82.2% | inhibition [11]: 25.3% | inhibition [12]: -5.85% | IC50 [13]: > 20 µM (not active) | IC50 [14]: 0.44 µM (not active)

Cc1cc(NC(=O)c2cccc(S(F)(F)(F)(F)F)c2)cc(-n2ccn3nc(-c4cccnc4)cc23)c1 [BAY-309]
Kd [15]: 0.063 µM (not active) | residual activity [1, 31]: 100% | EC50 [16]: 2.6 µM (not active) | IC50 [16]: 0.13 µM (not active) | residual activity [17]: 34.2% | Ki [18]: 2.15 µM | Kd [19]: 0.0021 µM (active) | residual activity [9, 31]: 100% | residual activity [10, 31]: 90.9% | Ki [20]: 1.73 µM | Ki [21]: 6.99 µM | Kd [22]: > 20 µM (not active) | inhibition [23]: 34.9% | EC50 [24]: 3.2 µM (not active) | IC50 [24]: > 10 µM (not active) | Ki [25]: 10 µM | inhibition [26]: 33.3% | Ki [27]: 10 µM | inhibition [28]: 5.64% | Ki [29]: 4.86 µM
